Test results taken from patent US11389396B2, “Tumescent antibiotic injection for treatment of chronic skin and soft tissue infections” (The Regents of the University of California, priority 2016, dated 2022).

Legend:
[1] = CT images roughly every 10 min of 20 mL tumescent injections, local fraction of contrast
Description: In a different experiment we took CT images roughly every 10 min instead of every hour in order to see the initially rapid dynamics. An axial cross-sectional image is shown in FIG. 14 before and after two 20 mL tumescent injections on symmetric sides of the anesthetized adult Yucatan pig's abdomen.
The initial rise is due to the spreading of the tumescent fluid after the completion of the injection into unexpanded tissue. […] We verified this by multiplying the total volume and mean curves to get a measure of the “total contrast” that remains localized in the tumescence (FIG. 15 bottom, left). Dividing the total contrast curve by its maximum yields the “Localized Fraction” curves of FIG. 15 (bottom, right).

[2] = CT scans over seven hours of tumescent injections of saline containing iodine contrast; type: in vivo, Yucatan pig
Description: To more accurately determine the timescale over which the local antibiotic concentration remains high, we performed CT scans over a long time period.
The figures are CTs viewing the abdomen of the pig with the head towards the top of the figure. Tumescent injections are seen as 4 rows, and 2 columns of large circular white regions, with injection volumes 20 mL, 10 mL, 5 mL and 2.5 mL from top row to bottom. There is one column of 4 tiny white dots along the center of the abdomen that are skin markers placed in the same axial plane as the location of the injections for reference. It is clear that the iodine concentration may remain high for several hours. While the 20 mL injections are clearly visible for 5 hours, the 2.5 mL injections are easily seen for only 3 hours.
Each value along the lineout represents the max attenuation value below that point on a line perpendicular to the surface (Maximum Intensity Projection mode). For comparison, we measured the attenuation of a vial of pure infusate to be 500 HU, and the attenuation of normal subcutaneous tissue to be about −90 HU. A concentration equal to at least half the initial value (or attenuation of […]—half way between the extremes) is maintained for at least 4 hours.

MRSA strains = details: 1 g/100 mL cefazolin in tumescent solution; cited from earlier work
[3] = healthy tissue; cited from earlier work
[4] = in vivo; cited from earlier work

II [iodine]
drop in the local fraction (take-up by lymph and capillaries) ([1]; over the 70 minutes of the experiment, anesthetized adult Yucatan pig): ~30% | timescale of spontaneous spreading ([1]; tumescent injection, CT): < 5 min | timescale of take up by the serum ([1]; tumescent injection, CT): ~1 h | time for which the injection is easily seen on CT ([2]; 2.5 mL subcutaneous abdominal injection, saline with 2 g/100 mL iodine contrast, healthy adult Yucatan pig): 3 h | time for which the injection is clearly visible on CT ([2]; 20 mL subcutaneous abdominal injection, saline with 2 g/100 mL iodine contrast, healthy adult Yucatan pig): 5 h | time for which a concentration of at least half the initial value is maintained ([2]; CT lineouts, maximum intensity projection, attenuation 155 as half way point): at least 4 hours

Cc1nnc(SCC2=C(C(=O)O)N3C(=O)[C@@H](NC(=O)Cn4cnnn4)[C@H]3SC2)s1 [cefazolin]
concentration relative to the MIC (MRSA strains): above the MIC for most, if not all, MRSA strains

CNC[C@H](O)c1ccc(O)c(O)c1 [epinephrine]
systemic absorption time extended by use of a vasoconstrictor [3]: > 8 h

CO/N=C(\C(=O)N[C@@H]1C(=O)N2C(C(=O)O)=C(CSc3nc(=O)c(=O)[nH]n3C)CS[C@H]12)c1csc(N)n1 [Ceftriaxone]
concentration shown to be safe, relative to 1 g/100 mL cefazolin [4]: 35 times higher concentrations
